Consider 15 compounds from patent publication US10975077B2 (Novira Therapeutics, Inc., priority 2016, dated 2021).

The structures appear in SMILES notation.

One experiment has as its system HBV (encapsidated HBV DNA, HepG2.2.15 cells). Description: HBV replication inhibition assay, BDNA assay in HepG2.2.15 cells. The experiment is classed as cell-based. To be noted: Activity in BDNA-assay. Summed up:
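Encapsidated HBV DNA in DNase-treated, proteinase K-lysed supernatant was measured by branched DNA after 6 days' compound exposure, refreshed on day 3, of HepG2.2.15 cells in 0.5% DMSO. Signals normalized to DMSO-treated wells; EC50 from nonlinear regression of inhibition against log concentration.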
Take `C=CC(O)C1CN(C)C(=O)c2c3c(nn2C1)CC(C)N(C(=O)Nc1ccc(F)c(C#N)c1)C3` (single isomer, unassigned) [Compound 123_D2, (3R,8S*)—N-(3-cyano-4-fluorophenyl)-8-((S*)-1-hydroxyallyl)-3,10-dimethyl-11-oxo-1,3,4,7,8,9,10,11-octahydro-2H-pyrido[4′,3′:3,4]pyrazolo[1,5-a][1,4]diazepine-2-carboxamide]: the EC50 (as a rule, the concentration that produces a half-maximal response) was 100 to 500 nM.
Same read-out and setting: the figure for `CN1CC(CNCC(F)F)Cn2nc3c(c2C1=O)CN(C(=O)Nc1cc(Br)c(F)cc1F)CC3` (single isomer, unassigned) [Compound 125_E1, (R*)—N-(5-bromo-2,4-difluorophenyl)-8-(((2,2-difluoroethyl)amino)methyl)-10-methyl-11-oxo-1,3,4,7,8,9,10,11-octahydro-2H-pyrido[4′,3′:3,4]pyrazolo[1,5-a][1,4]diazepine-2-carboxamide] is 100 to 500 nM; for `CN1CC(CNCC(F)F)Cn2nc3c(c2C1=O)CN(C(=O)Nc1cc(Br)c(F)cc1F)CC3` (single isomer, unassigned) [Compound 125_E2, (S*)—N-(5-bromo-2,4-difluorophenyl)-8-(((2,2-difluoroethyl)amino)methyl)-10-methyl-11-oxo-1,3,4,7,8,9,10,11-octahydro-2H-pyrido[4′,3′:3,4]pyrazolo[1,5-a][1,4]diazepine-2-carboxamide] it is 1 to 100 nM; for `CN1CC(CNCC(F)F)Cn2nc3c(c2C1=O)CN(C(=O)Nc1cc(Cl)c(F)cc1F)CC3` (single isomer, unassigned) [Compound 126_E2, (S*)—N-(5-chloro-2,4-difluorophenyl)-8-(((2,2-difluoroethyl)amino)methyl)-10-methyl-11-oxo-1,3,4,7,8,9,10,11-octahydro-2H-pyrido[4′,3′:3,4]pyrazolo[1,5-a][1,4]diazepine-2-carboxamide] it is 100 to 500 nM.
On the same count and under the same terms, the figure for `CN1CC(CNCC(F)F)Cn2nc3c(c2C1=O)CN(C(=O)Nc1ccc(F)c(C#N)c1F)CC3` (single isomer, unassigned) [Compound 127_E1, (R*)—N-(3-cyano-2,4-difluorophenyl)-8-(((2,2-difluoroethyl)amino)methyl)-10-methyl-11-oxo-1,3,4,7,8,9,10,11-octahydro-2H-pyrido[4′,3′:3,4]pyrazolo[1,5-a][1,4]diazepine-2-carboxamide] is 500 to 1000 nM.
Still for that read-out and setting: the figure for `CN1CC(CNCC(F)F)Cn2nc3c(c2C1=O)CN(C(=O)Nc1ccc(F)c(C#N)c1F)CC3` (single isomer, unassigned) [Compound 127_E2, (S*)—N-(3-cyano-2,4-difluorophenyl)-8-(((2,2-difluoroethyl)amino)methyl)-10-methyl-11-oxo-1,3,4,7,8,9,10,11-octahydro-2H-pyrido[4′,3′:3,4]pyrazolo[1,5-a][1,4]diazepine-2-carboxamide] is 1 to 100 nM; for `CN1CC(CNCC(F)F)Cn2nc3c(c2C1=O)CN(C(=O)Nc1ccc(F)c(Cl)c1F)CC3` (single isomer, unassigned) [Compound 128_E1, (R*)—N-(3-chloro-2,4-difluorophenyl)-8-(((2,2-difluoroethyl)amino)methyl)-10-methyl-11-oxo-1,3,4,7,8,9,10,11-octahydro-2H-pyrido[4′,3′:3,4]pyrazolo[1,5-a][1,4]diazepine-2-carboxamide] it is 100 to 500 nM; for `CN1CC(CNCC(F)F)Cn2nc3c(c2C1=O)CN(C(=O)Nc1ccc(F)c(Cl)c1F)CC3` (single isomer, unassigned) [Compound 128_E2, (S*)—N-(3-chloro-2,4-difluorophenyl)-8-(((2,2-difluoroethyl)amino)methyl)-10-methyl-11-oxo-1,3,4,7,8,9,10,11-octahydro-2H-pyrido[4′,3′:3,4]pyrazolo[1,5-a][1,4]diazepine-2-carboxamide] it is 1 to 100 nM.
In the case of `CN1CC(CNCC(F)F)Cn2nc3c(c2C1=O)CN(C(=O)Nc1ccc(F)c(Br)c1F)CC3` (single isomer, unassigned) [Compound 129_E1, (R*)—N-(3-bromo-2,4-difluorophenyl)-8-(((2,2-difluoroethyl)amino)methyl)-10-methyl-11-oxo-1,3,4,7,8,9,10,11-octahydro-2H-pyrido[4′,3′:3,4]pyrazolo[1,5-a][1,4]diazepine-2-carboxamide], the EC50 was in the range of 100 to 500 nM.
Still for that read-out and setting: the value for `CN1CC(CNCC(F)F)Cn2nc3c(c2C1=O)CN(C(=O)Nc1ccc(F)c(Br)c1F)CC3` (single isomer, unassigned) [Compound 129_E2, (S*)—N-(3-bromo-2,4-difluorophenyl)-8-(((2,2-difluoroethyl)amino)methyl)-10-methyl-11-oxo-1,3,4,7,8,9,10,11-octahydro-2H-pyrido[4′,3′:3,4]pyrazolo[1,5-a][1,4]diazepine-2-carboxamide] was 1 to 100 nM; that for `CN1CC(CNCC(F)F)Cn2nc3c(c2C1=O)CN(C(=O)Nc1ccc(F)c(Br)c1)CC3` (single isomer, unassigned) [Compound 130_E2, (S*)—N-(3-bromo-4-fluorophenyl)-8-(((2,2-difluoroethyl)amino)methyl)-10-methyl-11-oxo-1,3,4,7,8,9,10,11-octahydro-2H-pyrido[4′,3′:3,4]pyrazolo[1,5-a][1,4]diazepine-2-carboxamide] was 1 to 100 nM; that for `CN1CC(CNCC(F)F)Cn2nc3c(c2C1=O)CN(C(=O)Nc1ccc(F)c(C(F)(F)F)c1F)CC3` (single isomer, unassigned) [Compound 131_E2, (S*)—N-(2,4-difluoro-3-(trifluoromethyl)phenyl)-8-(((2,2-difluoroethyl)amino)methyl)-10-methyl-11-oxo-1,3,4,7,8,9,10,11-octahydro-2H-pyrido[4′,3′:3,4]pyrazolo[1,5-a][1,4]diazepine-2-carboxamide] was 100 to 500 nM.

Still in this experiment, the particulars now being: Hepatitis B virus, HepG2.2.15, Activity in BDNA-assay.
With `CN1CC(CNCC(F)F)Cn2nc3c(c2C1=O)CN(C(=O)Nc1cc(Cl)c(F)cc1F)CC3` (single isomer, unassigned) [Compound 126_E1, (R*)—N-(5-chloro-2,4-difluorophenyl)-8-(((2,2-difluoroethyl)amino)methyl)-10-methyl-11-oxo-1,3,4,7,8,9,10,11-octahydro-2H-pyrido[4′,3′:3,4]pyrazolo[1,5-a][1,4]diazepine-2-carboxamide], the EC50 fell in the range of 100 to 500 nM.
Same read-out and setting: the figure for `CN1CC(CNCC(F)F)Cn2nc3c(c2C1=O)CN(C(=O)Nc1ccc(F)c(Br)c1)CC3` (single isomer, unassigned) [Compound 130_E1, (R*)—N-(3-bromo-4-fluorophenyl)-8-(((2,2-difluoroethyl)amino)methyl)-10-methyl-11-oxo-1,3,4,7,8,9,10,11-octahydro-2H-pyrido[4′,3′:3,4]pyrazolo[1,5-a][1,4]diazepine-2-carboxamide] is 1 to 100 nM; for `CN1CC(CNCC(F)F)Cn2nc3c(c2C1=O)CN(C(=O)Nc1ccc(F)c(C(F)(F)F)c1F)CC3` (single isomer, unassigned) [Compound 131_E1, (R*)—N-(2,4-difluoro-3-(trifluoromethyl)phenyl)-8-(((2,2-difluoroethyl)amino)methyl)-10-methyl-11-oxo-1,3,4,7,8,9,10,11-octahydro-2H-pyrido[4′,3′:3,4]pyrazolo[1,5-a][1,4]diazepine-2-carboxamide] it is 100 to 500 nM.
